{
  "source": "paper PMC3594701",
  "about": "(Journal of acquired immune deficiency syndromes (1999), 2011)",
  "key": {"[1]": {"experiment": "IC accumulation: ratio of IC drug to drug in plasma", "conditions": "human, oral, GM IC to Plasma Ratio"}, "[2]": {"experiment": "Steady-state plasma pharmacokinetics", "type": "in vivo, human", "conditions": "for Cmax / concentration at 24 h: human; for Cmax: GM Cmax; for concentration at 24 h: GM Ctrough"}, "[3]": {"experiment": "Steady-state intracellular", "type": "in vivo, human", "conditions": "IC (PBMC); for GM AUC (darunavir, ritonavir) / GM AUC: AUC0–24; for Cmax / concentration at 24 h: human, oral; for Cmax: GM Cmax; for concentration at 24 h: GM Ctrough"}, "[4]": {"conditions": "PBMC (intracellular)/plasma, Cmax, group 1, period 3 (day 49): darunavir/ritonavir 800/100 mg once daily, without raltegravir"}, "[5]": {"conditions": "PBMC (intracellular)/plasma, Cmax, group 2, period 3 (day 49): darunavir/ritonavir 800/100 mg once daily, without raltegravir"}, "[6]": {"conditions": "PBMC (intracellular)/plasma, Ctrough, group 1, period 3 (day 49): darunavir/ritonavir 800/100 mg once daily, without raltegravir"}, "[7]": {"conditions": "PBMC (intracellular)/plasma, Ctrough, group 2, period 3 (day 49): darunavir/ritonavir 800/100 mg once daily, without raltegravir"}, "[8]": {"conditions": "intracellular (PBMC) / plasma, AUC (darunavir, ritonavir), group 1, period 2 (day 35): darunavir/ritonavir 800/100 mg once daily + raltegravir 400 mg twice daily"}, "[9]": {"conditions": "intracellular (PBMC) / plasma, AUC (darunavir, ritonavir), group 2, period 2 (day 35): darunavir/ritonavir 800/100 mg once daily + raltegravir 800 mg once daily"}, "[10]": {"conditions": "intracellular (PBMC) / plasma, AUC, group 1, period 3 (day 49): darunavir/ritonavir 800/100 mg once daily, without raltegravir"}, "[11]": {"conditions": "intracellular (PBMC) / plasma, AUC, group 2, period 3 (day 49): darunavir/ritonavir 800/100 mg once daily, without raltegravir"}, "[12]": {"conditions": "intracellular (PBMC) / plasma, Cmax, group 1, period 2 (day 35): raltegravir 400 mg twice daily + darunavir/ritonavir 800/100 mg once daily"}, "[13]": {"conditions": "intracellular (PBMC) / plasma, Cmax, group 2, period 2 (day 35): raltegravir 800 mg once daily + darunavir/ritonavir 800/100 mg once daily"}, "[14]": {"conditions": "intracellular (PBMC) / plasma, Ctrough, group 1, period 2 (day 35): raltegravir 400 mg twice daily + darunavir/ritonavir 800/100 mg once daily"}, "[15]": {"conditions": "intracellular (PBMC) / plasma, Ctrough, group 2, period 2 (day 35): raltegravir 800 mg once daily + darunavir/ritonavir 800/100 mg once daily"}, "[16]": {"conditions": "group 1, period 2 (day 35): raltegravir 400 mg twice daily + darunavir/ritonavir 800/100 mg once daily"}, "[17]": {"conditions": "group 1, period 3 (day 49): darunavir/ritonavir 800/100 mg once daily, without raltegravir"}, "[18]": {"conditions": "group 2, period 3 (day 49): darunavir/ritonavir 800/100 mg once daily, without raltegravir"}, "[19]": {"conditions": "oral, group 1, period 3 (day 49): darunavir/ritonavir 800/100 mg once daily, without raltegravir"}, "[20]": {"conditions": "oral, group 2, period 3 (day 49): darunavir/ritonavir 800/100 mg once daily, without raltegravir"}, "[21]": {"conditions": "PBMC, group 2, period 2 (day 35): raltegravir 800 mg once daily + darunavir/ritonavir 800/100 mg once daily"}},
  "note": "“Also recorded” adds a separate entry of the source.",
  "data": [
    {"smiles": "CC(C)CN(C[C@@H](O)[C@H](Cc1ccccc1)NC(=O)O[C@H]1CO[C@H]2OCC[C@H]21)S(=O)(=O)c1ccc(N)cc1", "note": "[Darunavir, darunavir]", "values": [
      {"measurement": "Kp", "setting": "[1]; [4]", "value": 6.8},
      {"measurement": "Kp", "setting": "[1]; [5]", "value": 4.8},
      {"measurement": "Kp", "setting": "[1]; [6]", "value": 4.8},
      {"measurement": "Kp", "setting": "[1]; [7]", "value": 4.4},
      {"measurement": "Kp", "setting": "[1]; [8]", "value": 5.3},
      {"measurement": "Kp", "setting": "[1]; [9]", "value": 5.6},
      {"measurement": "Kp", "setting": "[1]; [10]", "value": 5.3},
      {"measurement": "Kp", "setting": "[1]; [11]", "value": 4.9},
      {"measurement": "Kp", "setting": "[1]; [12]", "value": 6.8},
      {"measurement": "Kp", "setting": "[1]; [13]", "value": 6.3},
      {"measurement": "Kp", "setting": "[1]; [14]", "value": 4.4},
      {"measurement": "Kp at 24 h", "setting": "[1]; [15]", "value": 4.3}
    ]},
    {"smiles": "CC(C)c1nc(CN(C)C(=O)N[C@H](C(=O)N[C@@H](Cc2ccccc2)C[C@H](O)[C@H](Cc2ccccc2)NC(=O)OCc2cncs2)C(C)C)cs1", "note": "[Ritonavir, ritonavir]", "values": [
      {"measurement": "Kp", "setting": "[1]; [4]", "value": 13.5},
      {"measurement": "Kp", "setting": "[1]; [5]", "value": 5.2},
      {"measurement": "Kp", "setting": "[1]; [6]", "value": 11.7},
      {"measurement": "Kp", "setting": "[1]; [7]", "value": 10.6},
      {"measurement": "Kp", "setting": "[1]; [8]", "value": 10},
      {"measurement": "Kp", "setting": "[1]; [9]", "value": 6.9},
      {"measurement": "Kp", "setting": "[1]; [10]", "value": 9.5},
      {"measurement": "Kp", "setting": "[1]; [11]", "value": 6.5},
      {"measurement": "Kp", "setting": "[1]; [12]", "value": 13.8},
      {"measurement": "Kp", "setting": "[1]; [13]", "value": 5.7},
      {"measurement": "Kp", "setting": "[1]; [14]", "value": 12},
      {"measurement": "Kp at 24 h", "setting": "[1]; [15]", "value": 10.1},
      {"measurement": "GM AUC (darunavir, ritonavir)", "setting": "[2]; group 1, period 2 (day 35): darunavir/ritonavir 800/100 mg once daily + raltegravir 400 mg twice daily, AUC0–24", "value": 4299, "unit": "ng/h/mL"},
      {"measurement": "GM AUC (darunavir, ritonavir)", "setting": "[2]; group 1, period 2 (day 35): darunavir/ritonavir 800/100 mg once daily + raltegravir 400 mg twice daily, AUC0–24, listed as ritonavir", "value": "4299 (3823–5176) ng·h^−1·mL^−1"},
      {"measurement": "GM Ctrough", "setting": "[2]; [16]", "value": 0.048, "unit": "µg/mL"},
      {"measurement": "GM Ctrough", "setting": "[2]; [17]", "value": 0.044, "unit": "µg/mL"},
      {"measurement": "GM AUC", "setting": "[2]; group 1, period 3 (day 49): darunavir/ritonavir 800/100 mg once daily, without raltegravir, AUC0–24", "value": 4568, "unit": "ng/h/mL"},
      {"measurement": "GM AUC", "setting": "[2]; group 1, period 3 (day 49): darunavir/ritonavir 800/100 mg once daily, without raltegravir, AUC0–24, listed as ritonavir", "value": "4568 (4070–5427) ng·h^−1·mL^−1"},
      {"measurement": "GM AUC (darunavir, ritonavir)", "setting": "[2]; group 2, period 2 (day 35): darunavir/ritonavir 800/100 mg once daily + raltegravir 800 mg once daily, AUC0–24", "value": 4359, "unit": "ng/h/mL"},
      {"measurement": "GM AUC (darunavir, ritonavir)", "setting": "[2]; group 2, period 2 (day 35): darunavir/ritonavir 800/100 mg once daily + raltegravir 800 mg once daily, AUC0–24, listed as ritonavir", "value": "4359 (3816–5443) ng·h^−1·mL^−1"},
      {"measurement": "GM Ctrough", "setting": "[2]; group 2, period 2 (day 35): raltegravir 800 mg once daily + darunavir/ritonavir 800/100 mg once daily", "value": 0.034, "unit": "µg/mL"},
      {"measurement": "GM Ctrough", "setting": "[2]; [18]", "value": 0.036, "unit": "µg/mL"},
      {"measurement": "GM AUC", "setting": "[2]; group 2, period 3 (day 49): darunavir/ritonavir 800/100 mg once daily, without raltegravir, AUC0–24", "value": 4516, "unit": "ng/h/mL"},
      {"measurement": "GM AUC", "setting": "[2]; group 2, period 3 (day 49): darunavir/ritonavir 800/100 mg once daily, without raltegravir, AUC0–24, listed as ritonavir", "value": "4516 (3798–5986) ng·h^−1·mL^−1"},
      {"measurement": "Cmax", "setting": "[2]; [16]", "value": 0.483, "unit": "µg/mL"},
      {"measurement": "Cmax", "setting": "[2]; [19]", "value": 0.528, "unit": "µg/mL"},
      {"measurement": "Cmax", "setting": "[2]; [20]", "value": 0.527, "unit": "µg/mL"},
      {"measurement": "concentration at 24 h", "setting": "[2]; [19]", "value": 0.044, "unit": "µg/mL"},
      {"measurement": "concentration at 24 h", "setting": "[2]; oral, group 2, period 2 (day 35): raltegravir 800 mg once daily + darunavir/ritonavir 800/100 mg once daily", "value": 0.034, "unit": "µg/mL"},
      {"measurement": "concentration at 24 h", "setting": "[2]; [20]", "value": 0.036, "unit": "µg/mL"},
      {"measurement": "PK exposure parameters with versus without raltegravir", "setting": "[2]; periods 2 and 3", "value": "comparable; also recorded: not affected"},
      {"measurement": "GM AUC (darunavir, ritonavir)", "setting": "[3]; group 1, period 2 (day 35): darunavir/ritonavir 800/100 mg once daily + raltegravir 400 mg twice daily", "value": "33,789 ng·h^−1·mL^−1"},
      {"measurement": "GM Ctrough", "setting": "[3]; [16]", "value": 0.458, "unit": "µg/mL"},
      {"measurement": "GM AUC", "setting": "[3]; [17]", "value": "36,769 ng·h^−1·mL^−1"},
      {"measurement": "GM AUC (darunavir, ritonavir)", "setting": "[3]; group 2, period 2 (day 35): darunavir/ritonavir 800/100 mg once daily + raltegravir 800 mg once daily", "value": "28,683 ng·h^−1·mL^−1"},
      {"measurement": "GM AUC", "setting": "[3]; [18]", "value": "27,652 ng·h^−1·mL^−1"},
      {"measurement": "Cmax", "setting": "[3]; PBMC (intracellular), group 1, period 3 (day 49): darunavir/ritonavir 800/100 mg once daily, without raltegravir", "value": 4.04, "unit": "µg/mL"},
      {"measurement": "Cmax", "setting": "[3]; PBMC (intracellular), group 2, period 3 (day 49): darunavir/ritonavir 800/100 mg once daily, without raltegravir", "value": 2.61, "unit": "µg/mL"},
      {"measurement": "Cmax", "setting": "[3]; PBMC, group 1, period 2 (day 35): raltegravir 400 mg twice daily + darunavir/ritonavir 800/100 mg once daily", "value": 3.88, "unit": "µg/mL"},
      {"measurement": "Cmax", "setting": "[3]; [21]", "value": 3.29, "unit": "µg/mL"},
      {"measurement": "concentration at 24 h", "setting": "[3]; PBMC, group 1, period 3 (day 49): darunavir/ritonavir 800/100 mg once daily, without raltegravir", "value": 0.478, "unit": "µg/mL"},
      {"measurement": "concentration at 24 h", "setting": "[3]; [21]", "value": 0.329, "unit": "µg/mL"},
      {"measurement": "concentration at 24 h", "setting": "[3]; PBMC, group 2, period 3 (day 49): darunavir/ritonavir 800/100 mg once daily, without raltegravir", "value": 0.369, "unit": "µg/mL"}
    ]}
  ]
}
